Laboratory results: US11542492B2 (Celgene CAR LLC, priority 2009, dated 2023)

Tests used:
[1] = target: T1, HCV NS3/4A 1b protease enzyme (wild type) (Hepatitis C virus genotype 1b, UniProt P26663); assay: HCV protease FRET assay (IC50_APP), wild type NS3/4A 1b; assay type: biochemical
T1 construct: 10× stocks of NS3/4A protease enzyme from Bioenza (Mountain View, Calif.); purchased Bioenza
In short: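 Wild-type NS3/4A 1b protease with serially diluted compounds (from 50% DMSO stocks); reaction started at once with FRET substrate and followed 60-90 min at ex485/em520. Initial velocities (0 to 15+ min) normalised to no-inhibitor and no-enzyme controls; apparent IC50 from variable-slope log[inhibitor]-response fit.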

HCV NS3 protease WT 1b = target: T2, HCV NS3 protease WT 1b (Hepatitis C virus genotype 1b, UniProt P26663); assay: MALDI MS of intact HCV protease 1b WT incubated with compound; assay type: binding
T2 construct: The single-chain proteolytic domain (NS4A21-32-GSGS-NS33-631) was cloned into pET-14b; His tag (own knowledge of vector pET-14b); made in house; host or cells: Escherichia coli BL21
Protocol: Intact HCV (protease) 1bWT was incubated for 1 hr at a 10× fold excess of XVI-26 to protein. 3 ul aliquots of the samples were diluted with 10 ul of 0.1% TFA prior to micro C4 ZipTipping directly onto the MALDI target using Sinapinic acid as the desorption matrix (10 mg/mL in 0.1% TFA:Acetonitrile 50:50). […] Due to likely protein misfolding during protein purification, a small portion of the misfolded protein was not modified.
In order to determine whether the modification of the protein occurred at lysine, the pH from the above experiment was increased from 7.4 to 10.0. Because the compound lysine adduct would be an amide any increase in pH would have minimal effect on the modified protein. If however, the modification occurred at cysteine the resultant thioester bond would be unstable and the compound would hydrolyze off the protein.
Intact HCV (protease) 1bWT, C159S, and C159S/K136A were incubated for 1 hr at a 10× fold excess of XVI-26 to protein. 3 μl aliquots of the samples were diluted with 10 μl of 0.1% TFA prior to micro C4 ZipTipping directly onto the MALDI target using Sinapinic acid as the desorption matrix (10 mg/mL in 0.1% TFA:Acetonitrile 50:50).
Intact HCV (protease) WT1b was incubated for 1 hr at a 10× fold excess of XVI-1 (mw=782.87) to protein. 3 μl aliquots of the samples were diluted with 10 μl of 0.1% TFA prior to micro C4 ZipTipping directly onto the MALDI target using Sinapinic acid as the desorption matrix (10 mg/mL in 0.1% TFA:Acetonitrile 50:50). […] Due to some protein misfolding during the purification of the protein, the unfolded portion of the protein can not react with XVI-1.

Row | Structure (SMILES) | IC50 [1] | MS_HCVNS3_INTACT_NS3 WT 1b 1 HR (HCV NS3 protease WT 1b) | conversion of HCV NS3 WT1b (HCV NS3 protease WT 1b; 1 hr, 10× fold excess) | positive mass shift of HCV 1bWT (HCV NS3 protease WT 1b; 1 hr, 10× fold excess of compound to protein)
1 | C=C[C@@H]1C[C@]1(NC(=O)[C@@H]1C[C@@H](OC(=O)N2Cc3cccc(F)c3C2)CN1C(=O)[C@H](CNC(=O)c1cc(C(C)=O)oc1C)NC(=O)OC(C)(C)C)C(=O)NS(=O)(=O)C1CC1 [XVI-4] | 100 to 1000 nM | K (≤30% modification) | – | –
2 | C=C[C@@H]1C[C@]1(NC(=O)[C@@H]1CC(OC(=O)N2Cc3cccc(F)c3C2)CN1C(=O)[C@H](CC(=O)N1C[C@@H]2C[C@H]1C(=O)O2)NC(=O)OC(C)(C)C)C(=O)NS(=O)(=O)C1CC1 (stereo partly drawn) [XVI-15, (5S)-1-((S)-2-(tert-butoxycarbonylamino)-4-oxo-4-((1S,4S)-3-oxo-2-oxa-5-azabicyclo[2.2.1]heptan-5-yl)butanoyl)-5-((1R,2S)-1-(cyclopropylsulfonylcarbamoyl)-2-vinylcyclopropylcarbamoyl)pyrrolidin-3-yl 4-fluoroisoindoline-2-carboxylate] | < 1 nM | H (>50% and ≤70% modification) | – | –
3 | C=C[C@@H]1C[C@]1(NC(=O)[C@@H]1CC(Oc2nccc3cc(OC)ccc23)CN1C(=O)[C@H](CC(=O)N1C[C@@H]2C[C@H]1C(=O)O2)NC(=O)OC(C)(C)C)C(=O)NS(=O)(=O)C1CC1 (stereo partly drawn) [XVI-7] | 1 to 10 nM | H (>50% and ≤70% modification) | – | –
4 | C=C[C@@H]1C[C@]1(NC(=O)[C@@H]1CC(OC(=O)N2Cc3cccc(F)c3C2)CN1C(=O)[C@H](CC(=O)N1C[C@H]2C[C@@H]1C(=O)O2)NC(=O)OC(C)(C)C)C(=O)NS(=O)(=O)C1CC1 (stereo partly drawn) [XVI-14, (5S)-1-((S)-2-(tert-butoxycarbonylamino)-4-oxo-4-((1R,4R)-3-oxo-2-oxa-5-azabicyclo[2.2.1]heptan-5-yl)butanoyl)-5-((1R,2S)-1-(cyclopropylsulfonylcarbamoyl)-2-vinylcyclopropylcarbamoyl)pyrrolidin-3-yl 4-fluoroisoindoline-2-carboxylate] | < 1 nM | H (>50% and ≤70% modification) | – | –
5 | C=C[C@@H]1C[C@]1(NC(=O)[C@@H]1CC(Oc2nccc3cc(OC)ccc23)CN1C(=O)[C@H](CCC(=O)N1CC[C@H]2C[C@@H]1C(=O)O2)NC(=O)OC(C)(C)C)C(=O)NS(=O)(=O)C1CC1 (stereo partly drawn) [XVI-2] | < 1 nM | K (≤30% modification) | – | –
6 | C=C[C@@H]1C[C@]1(NC(=O)[C@@H]1C[C@@H](OC(=O)N2Cc3cccc(F)c3C2)CN1C(=O)[C@H](CNC(=O)c1coc(C(C)=O)c1)NC(=O)OC(C)(C)C)C(=O)NS(=O)(=O)C1CC1 [XVI-5] | 100 to 1000 nM | K (≤30% modification) | – | –
7 | C=C[C@@H]1C[C@]1(NC(=O)[C@@H]1CC(Oc2nccc3cc(OC)ccc23)CN1C(=O)[C@H](CCC(=O)N1C[C@@H]2C[C@H]1C(=O)O2)NC(=O)OC(C)(C)C)C(=O)NS(=O)(=O)C1CC1 (stereo partly drawn) [XVI-9, tert-butyl(2S)-1-((2S)-2-((1R,2S)-1-(cyclopropylsulfonylcarbamoyl)-2-vinylcyclopropylcarbamoyl)-4-(6-methoxyisoquinolin-1-yloxy)pyrrolidin-1-yl)-1,5-dioxo-5-((1S,4S)-3-oxo-2-oxa-5-azabicyclo[2.2.1]heptan-5-yl)pentan-2-ylcarbamate] | < 1 nM | H (>50% and ≤70% modification) | – | –
8 | C=C[C@@H]1C[C@]1(NC(=O)[C@@H]1C[C@@H](Oc2nccc3cc(OC)ccc23)CN1C(=O)[C@H](CCC(=O)N1CCC1=O)NC(=O)OC(C)(C)C)C(=O)NS(=O)(=O)C1CC1 [XVI-1, tert-butyl (S)-1-((2S,4R)-2-((1R,2S)-1-(cyclopropylsulfonylcarbamoyl)-2-vinylcyclopropylcarbamoyl)-4-(6-methoxyisoquinolin-1-yloxy)pyrrolidin-1-yl)-1,5-dioxo-5-(2-oxoazetidin-1-yl)pentan-2-ylcarbamate] | < 1 nM | G (>70% modification) | ~72% | 755 Da
9 | C=C[C@@H]1C[C@]1(NC(=O)[C@@H]1CC(Oc2cc(-c3ccccc3)nc3cc(OC)ccc23)CN1C(=O)[C@H](CNC(=O)[C@@H]1CCC(=O)O1)NC(=O)OC(C)(C)C)C(=O)NS(=O)(=O)C1CC1 (stereo partly drawn) [XVI-24, tert-butyl(2S)-1-((2S)-2-((1R,2S)-1-(cyclopropylsulfonylcarbamoyl)-2-vinylcyclopropylcarbamoyl)-4-(7-methoxy-2-phenylquinolin-4-yloxy)pyrrolidin-1-yl)-1-oxo-3-((S)-5-oxotetrahydrofuran-2-carboxamido)propan-2-ylcarbamate] | 1 to 10 nM | K (≤30% modification) | – | –
10 | C=C[C@@H]1C[C@]1(NC(=O)[C@@H]1CC(OC(=O)N2Cc3cccc(F)c3C2)CN1C(=O)[C@H](COC(=O)N[C@@H]1C(=O)O[C@@H]1C)NC(=O)OC(C)(C)C)C(=O)NS(=O)(=O)C1CC1 (stereo partly drawn) [XVI-25, (5S)-1-((S)-2-(tert-butoxycarbonylamino)-3-((2R,3S)-2-methyl-4-oxooxetan-3-ylcarbamoyloxy)propanoyl)-5-((1R,2S)-1-(cyclopropylsulfonylcarbamoyl)-2-vinylcyclopropylcarbamoyl)pyrrolidin-3-yl 4-fluoroisoindoline-2-carboxylate] | < 1 nM | K (≤30% modification) | – | –
11 | C=C[C@@H]1C[C@]1(NC(=O)[C@@H]1CC(Oc2nccc3cc(OC)ccc23)CN1C(=O)[C@H](CC(=O)N1C[C@H]2C[C@@H]1C(=O)O2)NC(=O)OC(C)(C)C)C(=O)NS(=O)(=O)C1CC1 (stereo partly drawn) [XVI-6] | 1 to 10 nM | H (>50% and ≤70% modification) | – | –
12 | C=C[C@@H]1C[C@]1(NC(=O)[C@@H]1CC(Oc2nccc3cc(OC)ccc23)CN1C(=O)[C@H](CCC(=O)N1C[C@@H]2CC[C@H]1C(=O)O2)NC(=O)OC(C)(C)C)C(=O)NS(=O)(=O)C1CC1 (stereo partly drawn) [XVI-3, tert-butyl(2S)-1-((2S)-2-((1R,2S)-1-(cyclopropylsulfonylcarbamoyl)-2-vinylcyclopropylcarbamoyl)-4-(6-methoxyisoquinolin-1-yloxy)pyrrolidin-1-yl)-1,5-dioxo-5-((1S,4S)-3-oxo-2-oxa-5-azabicyclo[2.2.2]octan-5-yl)pentan-2-ylcarbamate] | < 1 nM | K (≤30% modification) | – | –
13 | C=C[C@@H]1C[C@]1(NC(=O)[C@@H]1CC(OC(=O)N2Cc3cccc(F)c3C2)CN1C(=O)[C@H](CCC(=O)N1C[C@@H]2C[C@H]1C(=O)O2)NC(=O)OC(C)(C)C)C(=O)NS(=O)(=O)C1CC1 (stereo partly drawn) [XVI-17, (5S)-1-((S)-2-(tert-butoxycarbonylamino)-5-oxo-5-((1S,4S)-3-oxo-2-oxa-5-azabicyclo[2.2.1]heptan-5-yl)pentanoyl)-5-((1R,2S)-1-(cyclopropylsulfonylcarbamoyl)-2-vinylcyclopropylcarbamoyl)pyrrolidin-3-yl 4-fluoroisoindoline-2-carboxylate] | < 1 nM | G (>70% modification) | – | –
14 | C=C[C@@H]1C[C@]1(NC(=O)[C@@H]1CC(OC(=O)N2Cc3cccc(F)c3C2)CN1C(=O)[C@H](CCC(=O)N1C[C@H]2C[C@@H]1C(=O)O2)NC(=O)OC(C)(C)C)C(=O)NS(=O)(=O)C1CC1 (stereo partly drawn) [XVI-16, (5S)-1-((S)-2-(tert-butoxycarbonylamino)-5-oxo-5-((1R,4R)-3-oxo-2-oxa-5-azabicyclo[2.2.1]heptan-5-yl)pentanoyl)-5-((1R,2S)-1-(cyclopropylsulfonylcarbamoyl)-2-vinylcyclopropylcarbamoyl)pyrrolidin-3-yl 4-fluoroisoindoline-2-carboxylate] | < 1 nM | H (>50% and ≤70% modification) | – | –
